Measured values from the Kinase Knowledgebase extract (Sharma et al. 2016).

Molecular target: PIK3CA (human) (UniProt P42336)
Experiment: Inhibition of PIK3CA Kinase Activity

Chain of PIK3CA (human) (P42336 whole entry, looked up): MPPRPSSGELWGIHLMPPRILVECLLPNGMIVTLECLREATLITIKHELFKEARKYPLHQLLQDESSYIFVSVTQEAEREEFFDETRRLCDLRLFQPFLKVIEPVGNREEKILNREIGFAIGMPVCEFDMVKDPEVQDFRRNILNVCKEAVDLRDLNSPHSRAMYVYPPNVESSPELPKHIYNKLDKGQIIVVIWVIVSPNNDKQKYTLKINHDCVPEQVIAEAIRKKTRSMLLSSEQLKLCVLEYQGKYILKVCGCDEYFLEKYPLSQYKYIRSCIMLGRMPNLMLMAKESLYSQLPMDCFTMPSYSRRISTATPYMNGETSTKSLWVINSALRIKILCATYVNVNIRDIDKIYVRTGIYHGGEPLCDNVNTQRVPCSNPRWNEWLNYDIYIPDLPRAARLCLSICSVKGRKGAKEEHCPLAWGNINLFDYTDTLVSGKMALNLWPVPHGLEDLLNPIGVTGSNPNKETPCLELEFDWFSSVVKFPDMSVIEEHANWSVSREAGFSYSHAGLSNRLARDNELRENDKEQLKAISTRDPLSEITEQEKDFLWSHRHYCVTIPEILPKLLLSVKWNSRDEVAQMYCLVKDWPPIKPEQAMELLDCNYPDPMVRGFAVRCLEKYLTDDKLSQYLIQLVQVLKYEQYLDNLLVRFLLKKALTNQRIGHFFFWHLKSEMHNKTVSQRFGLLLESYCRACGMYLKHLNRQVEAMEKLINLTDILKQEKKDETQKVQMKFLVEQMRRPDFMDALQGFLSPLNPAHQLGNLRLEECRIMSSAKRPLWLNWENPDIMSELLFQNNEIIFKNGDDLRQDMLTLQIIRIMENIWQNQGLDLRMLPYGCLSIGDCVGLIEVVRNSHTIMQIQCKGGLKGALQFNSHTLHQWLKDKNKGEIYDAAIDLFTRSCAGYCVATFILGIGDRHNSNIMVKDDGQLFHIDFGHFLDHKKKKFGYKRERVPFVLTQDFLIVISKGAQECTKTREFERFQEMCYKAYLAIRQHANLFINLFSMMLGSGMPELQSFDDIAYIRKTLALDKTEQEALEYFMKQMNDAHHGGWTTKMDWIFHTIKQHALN

| Compound | IC50 [nM] |
| --- | --- |
| Nc1ncc(-c2nc(N3CCOCC3)nc3[nH]cnc23)cn1 | < 1000 |
| COC(=O)c1ccc(Cn2cnc3c(-c4cccc(O)c4)nc(N4CCOCC4)nc32)cc1 | < 1000 |
| c1cc(-c2nc(N3CCOCC3)nc3c2ncn3C2CCOC2)c2cc[nH]c2c1 (stereo unspecified) | < 1000 |
| CCC(CC)n1cnc2c(-c3cnc(N)nc3)nc(N3CCOCC3)nc21 | < 1000 |
| Cc1cccc(-n2cnc3c(-c4cnc(N)nc4)nc(N4CCOCC4)nc32)c1 | < 1000 |
| c1nc2cc(-c3nc(N4CCOCC4)nc4c3ncn4CC3CC3)ccc2[nH]1 | < 1000 |
| CCC(C)n1c(Cl)nc2c(-c3cccc(O)c3)nc(N3CCOCC3)nc21 (stereo unspecified) | < 1000 |
| Cc1nc(N)ncc1-c1nc(N2CCOCC2)nc2c1ncn2C(C)C1CC1 (stereo unspecified) | < 1000 |
| CS(=O)(=O)N1CCC(n2cnc3c(-c4cccc5[nH]ccc45)nc(N4CCOCC4)nc32)CC1 | < 1000 |
| O=C(Nc1ccc(Cl)cc1)N1CCC(n2cnc3c(-c4cccc5[nH]ccc45)nc(N4CCOCC4)nc32)CC1 | < 1000 |
| Cc1ccc(C(=O)N2CCC(n3cnc4c(-c5cnc(N)nc5)nc(N5CCOCC5)nc43)C2)s1 (stereo unspecified) | < 1000 |
| CC(COC(C)(C)C)n1cnc2c(-c3cnc(N)nc3)nc(N3CCOCC3)nc21 (stereo unspecified) | < 1000 |
| CC(C1CC1)n1cnc2c(-c3cccc(O)c3)nc(N3CCOCC3)nc21 (stereo unspecified) | < 1000 |
| CCC(C)n1c(S(C)(=O)=O)nc2c(-c3cccc(O)c3)nc(N3CCOCC3)nc21 (stereo unspecified) | < 1000 |
| CCC(C)n1c(NCCN(C)C)nc2c(-c3cccc(O)c3)nc(N3CCOCC3)nc21 (stereo unspecified) | < 1000 |
| CCNc1ccc(Cn2cnc3c(-c4cccc(O)c4)nc(N4CCOCC4)nc32)cc1 | < 1000 |
| CC(C)C(C)n1cnc2c(-c3cccc4[nH]ccc34)nc(N3CCOCC3)nc21 (stereo unspecified) | < 1000 |
| O=C(Cc1cccnc1)N1CCC(n2cnc3c(-c4cccc5[nH]ccc45)nc(N4CCOCC4)nc32)CC1 | < 1000 |
| CC(C)(C)OC(=O)N1CCC(n2cnc3c(-c4cccc5[nH]ccc45)nc(N4CCOCC4)nc32)C1 (stereo unspecified) | < 1000 |
| Oc1cccc(-c2nc(N3CCOCC3)nc3[nH]c(-c4cccs4)nc23)c1 | < 1000 |
| Oc1cccc(-c2nc(N3CCOCC3)nc3c2ncn3CC2CC2)c1 | < 1000 |
| CC(C1CC1)n1cnc2c(-c3cccc4[nH]ccc34)nc(N3CCOCC3)nc21 (stereo unspecified) | < 1000 |
| CC(C)n1cnc2c(-c3ccc(N)nc3)nc(N3CCOCC3)nc21 | < 1000 |
| CC(C)(C)Cn1cnc2c(-c3cnc(N)nc3)nc(N3CCOCC3)nc21 | < 1000 |
| CCC(C)n1cnc2c(-c3ccc(N)nc3)nc(N3CCOCC3)nc21 (stereo unspecified) | < 1000 |
| N#CCn1cnc2c(-c3cccc4[nH]ccc34)nc(N3CCOCC3)nc21 | < 1000 |

More lines, now with the values ahead:

| IC50 [nM] | Compound |
| --- | --- |
| < 1000 | Cc1ccc(C(=O)N2CCC(n3cnc4c(-c5cccc6[nH]ccc56)nc(N5CCOCC5)nc43)CC2)s1 |
| < 1000 | COCCn1cnc2c(-c3cccc(O)c3)nc(N3CCOCC3)nc21 |
| < 1000 | N#CCn1cnc2c(-c3cccc(O)c3)nc(N3CCOCC3)nc21 |
| < 1000 | CCC(C)n1c(Br)nc2c(-c3cccc(O)c3)nc(N3CCOCC3)nc21 (stereo unspecified) |
| < 1000 | CC(C1CC1)n1cnc2c(-c3cnc(N)nc3)nc(N3CCOCC3)nc21 (stereo unspecified) |
| < 1000 | Oc1cccc(-c2nc(N3CCOCC3)nc3c2ncn3Cc2ccccc2)c1 |
| < 1000 | CCCC(=O)N1CCC(n2cnc3c(-c4cnc(N)nc4)nc(N4CCOCC4)nc32)CC1 |
| < 1000 | CC(=O)Nc1ccc(Cn2cnc3c(-c4cccc(OC(C)=O)c4)nc(N4CCOCC4)nc32)cc1 |
| < 1000 | CCCC(=O)N1CCC(n2cnc3c(-c4cccc5[nH]ccc45)nc(N4CCOCC4)nc32)CC1 |
| < 1000 | COc1cccc(Cn2cnc3c(-c4cccc(O)c4)nc(N4CCOCC4)nc32)c1 |
| < 1000 | Nc1ncc(-c2nc(N3CCOCC3)nc3c2ncn3CC2CC2)cn1 |
| < 1000 | CCC(C)n1cnc2c(-c3cnc(N)nc3OC)nc(N3CCOCC3)nc21 (stereo unspecified) |
| < 1000 | Nc1ncc(-c2nc(N3CCOCC3)nc3c2ncn3Cc2c(F)cccc2F)cn1 |
| < 1000 | Nc1ccc(Cn2cnc3c(-c4cccc(O)c4)nc(N4CCOCC4)nc32)cc1 |
| < 1000 | COCC(C)n1cnc2c(-c3cnc(N)nc3C)nc(N3CCOCC3)nc21 (stereo unspecified) |
